Source: patent EP2762573A1, “In vitro method for determining cholestatic properties of a compound” (priority 2013, dated 2014)
Like-named read-outs stand apart in the source and are kept apart here.

Legend:
PCLS = test: Cytotoxicity analysis - dose selection experiments (LDH, ATP, protein assay)
Description: (§1) 23-weeks old male C57BL/6 mice were obtained from Harlan (Horst, The Netherlands). Animals were kept for 1 week at a housing temperature of 22°C and at a relative humidity of 30-70%. The lighting cycle was 12-h light and 12-h dark. At the age of 24 weeks animals were sacrificed by an overdose of isoflurane. The treatment protocol was approved by the Ethical Committee for Animal Experiments at Wageningen University.
(§2) Immediately after the animals were killed the liver was perfused with PBS and placed in ice-cold Krebs-Henseleit buffer (KHB) (pH 7.4, supplemented with 11 mM glucose). Liver tissue was transported to the laboratory within approximately 30 min and cylindrical liver cores were produced using a surgical biopsy punch with diameter of 5 mm (KAI, SynErgo Europe, Romania). Liver cores were placed in a Krumdieck tissue slicer (Alabama Research and Development, Munford, AL) filled with ice-cold KHB aerated with carbogen and supplemented with 11 mM glucose. Precesion cut liver slices (PCLS) with a diameter of 5 mm, a thickness of 0.2 mm and a weight of approximately 10 mg were prepared. Immediately after preparation, slices were transferred into culture plates filled with pre-warmed (37 degrees C) Williams E medium (WEM). Three liver slices were pre-cultured in one well of the 6-well plate filled with 4 ml of WEM for one hour with continuous shaking (70 rpm). Incubations were performed in an oxygen controlled incubator (Galaxy 48 R New Brunswick, Nijmegen, the Netherlands) at 80% of oxygen; 5% CO2 and the remaining gas volume was filled up to […] with N2. After one hour of pre-incubation, media were removed and replaced with fresh media containing test compounds or appropriate solvents. After incubations, samples were snap-frozen in liquid nitrogen and stored in -80 °C for further analysis. Samples dedicated to histology were stored in 4 % formaldehyde at room temperature.
(§3) PCLS were incubated at the same conditions as described above. Slices were exposed for 24 and 48 hours to one concentration of the tested compounds or controls. Concentrations used in the exposure experiments were preselected in the dose selection experiments for each drug individually. […] For the necrotic compounds: 1000 uM acetaminophen, 5 µM paraquat and 1000 uM isoniazid. Liver slices obtained from five mice were used in five toxic compound or control exposure experiments performed at the same time. Dose selection experiments and exposure experiments were performed at different days. Therefore, ATP, LDH, and protein assays were performed again for the exposure experiments to confirm that the selected doses did also not affect slice viability in these experiments.

Parp16 = test: Biomarkers validation by q-pcr in precision cut liver slices: Parp16 expression
Description: as §1, §2, §3
(§4) In further studies, expression of ten candidate biomarkers in PCLS was analyzed by q-pcr using the Biorad CFX96 TM Real-Time Detection System (Bio-Rad, Veenendaal, The Netherlands) with the following cycling conditions: 15 min 95°C followed by 40 cycles of 15s 95 °C and 1 min 60 °C. Reactions were performed in 10 µl and contained 20 ng cDNA, 1x TaqMan PCR Master Mix (Applied Biosystems, Foster City, CA), and depending on the analysed gene, 250 nM probe and 900 nM primer (for actin b) or 1xTaqMan gene expression assay (for the remaining genes) (Applied Biosystems, foster City, CA).

ABCG5 = test: Biomarkers validation by q-pcr in precision cut liver slices: ABCG5 expression
Description: as §1, §2, §3, §4

Nme6 = test: Biomarkers validation by q-pcr in precision cut liver slices: Nme6 expression
Description: as §1, §2, §3, §4

KLF15 = test: Biomarkers validation by q-pcr in precision cut liver slices: KLF15 expression
Description: as §1, §2, §3, §4

SERPINE1 = test: Biomarkers validation by q-pcr in precision cut liver slices: SERPINE1 expression
Description: as §1, §2, §3, §4

BAAT = test: Biomarkers validation by q-pcr in precision cut liver slices: BAAT expression
Description: as §1, §2, §3, §4

Mras = test: Biomarkers validation by q-pcr in precision cut liver slices: Mras expression
Description: as §1, §2, §3, §4

ABCG8 = test: Biomarkers validation by q-pcr in precision cut liver slices: ABCG8 expression
Description: as §1, §2, §3, §4

Myo1e = test: Biomarkers validation by q-pcr in precision cut liver slices: Myo1e expression
Description: as §1, §2, §3, §4

Bcl2l11 = test: Biomarkers validation by q-pcr in precision cut liver slices: Bcl2l11 expression
Description: as §1, §2, §3, §4

## NNC(=O)c1ccncc1 [ISONZ, isoniazid]
PCLS; male, C57BL/6, mouse
  highest concentration that did not cause significant increase of toxicity: 1000 µM
Parp16; male, C57BL/6, mouse
  *fold change 1, gene expression level Parp 16: -1,0
  *fold change 2, gene expression level Parp 16: -1,0
  *fold change 3, gene expression level Parp 16: 1,2
  *fold change 4, gene expression level Parp 16: -2,3
  *fold change 5, gene expression level Parp 16: -1,8
ABCG5; male, C57BL/6, mouse
  *fold change 1, gene expression level ABCG5: 2,0
  *fold change 2, gene expression level ABCG5: 3,0
  *fold change 3, gene expression level ABCG5: 1,1
  *fold change 4, gene expression level ABCG5: 2,0
  *fold change 5, gene expression level ABCG5: 2,0
Nme6; male, C57BL/6, mouse
  *fold change 1, gene expression level Nme6: 1,3
  *fold change 2, gene expression level Nme6: 1,2
  *fold change 3, gene expression level Nme6: 1,1
  *fold change 4, gene expression level Nme6: -1,3
  *fold change 5, gene expression level Nme6: -1,1
KLF15; male, C57BL/6, mouse
  *fold change 1, gene expression level KLF15: 1,2
  *fold change 2, gene expression level KLF15: 2,4
  *fold change 3, gene expression level KLF15: 1,0
  *fold change 4, gene expression level KLF15: 1,1
  *fold change 5, gene expression level KLF15: 1,2
SERPINE1; male, C57BL/6, mouse
  *fold change 1, gene expression level SERPINE1: 5,4
  *fold change 2, gene expression level SERPINE1: 1,9
  *fold change 3, gene expression level SERPINE1: 1,4
  *fold change 4, gene expression level SERPINE1: -1,4
  *fold change 5, gene expression level SERPINE1: -2,9
BAAT; male, C57BL/6, mouse
  *fold change 1, gene expression level BAAT: 1,8
  *fold change 2, gene expression level BAAT: 1,7
  *fold change 3, gene expression level BAAT: 1,1
  *fold change 4, gene expression level BAAT: -1,3
  *fold change 5, gene expression level BAAT: 1,3
Mras; male, C57BL/6, mouse
  *fold change 1, gene expression level Mras: 1,7
  *fold change 2, gene expression level Mras: -1,1
  *fold change 3, gene expression level Mras: 1,3
  *fold change 4, gene expression level Mras: -1,3
  *fold change 5, gene expression level Mras: -1,3
ABCG8; male, C57BL/6, mouse
  *fold change 1, gene expression level ABCG8: 2,1
  *fold change 2, gene expression level ABCG8: 2,8
  *fold change 3, gene expression level ABCG8: 1,0
  *fold change 4, gene expression level ABCG8: 2,3
  *fold change 5, gene expression level ABCG8: 1,9
Myo1e; male, C57BL/6, mouse
  *fold change 1, gene expression level Myo 1e: 1,5
  *fold change 2, gene expression level Myo 1e: 1,3
  *fold change 3, gene expression level Myo 1e: 1,3
  *fold change 4, gene expression level Myo 1e: -1,3
  *fold change 5, gene expression level Myo 1e: 1,1
Bcl2l11; male, C57BL/6, mouse
  *fold change 1, gene expression level Bcl2111: 1,9
  *fold change 2, gene expression level Bcl2111: 1,7
  *fold change 3, gene expression level Bcl2111: 1,3
  *fold change 4, gene expression level Bcl2111: -1,2
  *fold change 5, gene expression level Bcl2111: -1,2

## C[n+]1ccc(-c2cc[n+](C)cc2)cc1 [PQ, paraquat]
PCLS; mouse PCLS, LDH, ATP, and protein assay, concentration then used in exposure experiments
  highest concentration that did not cause significant increase of toxicity: 5 µM
Parp16
  *fold change 1, gene expression level Parp 16: 1,6
  *fold change 2, gene expression level Parp 16: 1,0
  *fold change 3, gene expression level Parp 16: 1,0
  *fold change 4, gene expression level Parp 16: 1,1
  *fold change 5, gene expression level Parp 16: 1,4
ABCG5
  *fold change 1, gene expression level ABCG5: 1,1
  *fold change 2, gene expression level ABCG5: 1,1
  *fold change 3, gene expression level ABCG5: 1,7
  *fold change 4, gene expression level ABCG5: -1,3
  *fold change 5, gene expression level ABCG5: -1,6
Nme6
  *fold change 1, gene expression level Nme6: 1,1
  *fold change 2, gene expression level Nme6: -1,2
  *fold change 3, gene expression level Nme6: 1,0
  *fold change 4, gene expression level Nme6: 1,1
  *fold change 5, gene expression level Nme6: 1,2
KLF15
  *fold change 1, gene expression level KLF15: 1,3
  *fold change 2, gene expression level KLF15: -1,0
  *fold change 3, gene expression level KLF15: 1,3
  *fold change 4, gene expression level KLF15: 1,1
  *fold change 5, gene expression level KLF15: -1,2
SERPINE1
  *fold change 1, gene expression level SERPINE1: 2,7
  *fold change 2, gene expression level SERPINE1: 2,3
  *fold change 3, gene expression level SERPINE1: 2,7
  *fold change 4, gene expression level SERPINE1: 1,3
  *fold change 5, gene expression level SERPINE1: 1,9
SERPINE1; Mann-Whitney test vs controls, 5 mice, mouse PCLS, same concentrations as fold change columns
  MW test, gene expression level SERPINE1: * (A p-value <0.05 was considered significant)
BAAT
  *fold change 1, gene expression level BAAT: -1,2
  *fold change 2, gene expression level BAAT: -1,0
  *fold change 3, gene expression level BAAT: 1,7
  *fold change 4, gene expression level BAAT: 1,1
  *fold change 5, gene expression level BAAT: -1,4
Mras
  *fold change 1, gene expression level Mras: 1,4
  *fold change 2, gene expression level Mras: 1,3
  *fold change 3, gene expression level Mras: 1,1
  *fold change 4, gene expression level Mras: 1,1
  *fold change 5, gene expression level Mras: 1,4
ABCG8
  *fold change 1, gene expression level ABCG8: 1,0
  *fold change 2, gene expression level ABCG8: -1,2
  *fold change 3, gene expression level ABCG8: 1,8
  *fold change 4, gene expression level ABCG8: -1,3
  *fold change 5, gene expression level ABCG8: -1,4
Myo1e
  *fold change 1, gene expression level Myo 1e: 1,1
  *fold change 2, gene expression level Myo 1e: 1,4
  *fold change 3, gene expression level Myo 1e: 1,1
  *fold change 4, gene expression level Myo 1e: 1,2
  *fold change 5, gene expression level Myo 1e: 1,2
Bcl2l11
  *fold change 1, gene expression level Bcl2111: 1,3
  *fold change 2, gene expression level Bcl2111: 1,1
  *fold change 3, gene expression level Bcl2111: 1,1
  *fold change 4, gene expression level Bcl2111: 1,2
  *fold change 5, gene expression level Bcl2111: 1,1
